Measurements as given in patent US7176219B2, “Salts of quinuclidine derivative” (priority 2005, dated 2007).
Read-outs that look alike come from different tables or passages of the source.

How the values were obtained:
[1] = Evaluation of hygroscopicity (dynamic steam adsorption, weight change); format: physicochemical; details: 25° C., within the range 5–95% relative humidity
Description: A sample (about 5 mg) was placed in a purpose-made quartz holder, and the sample weight at the respective humidity was continuously measured and recorded in the following conditions. The apparatus including data processing was operated according to the method and procedure directed in each device. (Apparatus: dynamic steam adsorption measuring apparatus DVS Advantage, made by SMS)

[2] = test system: carbachol-evoked bladder contraction; assay: Inhibitory effects on carbachol-evoked bladder contraction in anesthetized mice; format: in vivo; details: anesthetized female mice, i.v., carbachol 10 μg/kg, intravesical pressure
Description: The method for determination of inhibitory effects of test compounds on bladder contraction is described as follows.
Female mice, weighing 30 to 35 g, were anesthetized with a sub-lethal dose (75 mg/kg, i.v.) of sodium pentobarbital and placed supine on a heating pad to maintain the body temperature. A polyethylene catheter (PE10) was cannulated to the bladder via the urethra and secured by purse-string suture at the external urethral opening. Another catheter was inserted into the femoral vein for injections of drug solutions at a […]. The bladder catheter was connected to a pressure transducer through a three-way stopcock valve. The bladder was emptied by drainage of urine through the catheter, and then distended with about 100 μL of physiological saline, and the intravesical pressure was measured.
After intravesical pressure stabilization, the muscarinic agonist carbachol (10 μg/kg) was administered repeatedly with an interval of 15 minutes or longer. By this means, bladder contractions occurred in a reproducible manner over 2 hours without deterioration of physical conditions. After three responses to carbachol were obtained, a test compound injection was followed by carbachol administration 10 minutes later and this procedure was repeated with increasing doses of the test compound. In four or five mice per test compound, the percent inhibition of means of prior drug responses was obtained and the dose of test compound required for 50% inhibition (ID50) was estimated by the linear regression analysis. Mice showing rhythmic bladder constriction were not used for the data analysis.

muscarinic M3 receptors = molecular target: T1, muscarinic M3 receptors (Cavia porcellus, UniProt H0W1Z3); assay: Functional affinity estimate for muscarinic M3 receptors in bladders (carbachol-induced intracellular Ca2+ change in bladder smooth muscle cells); format: cell-based, guinea pig; details: for Ki: IC50 converted by Cheng-Prusoff equation based on EC50 of carbachol; for IC50: inhibition of carbachol-induced Ca2+ increase, guinea pig bladder smooth muscle cells, Fura2
T1 construct: Smooth muscle cells were isolated from guinea pig bladders; from tissue; host or cells: smooth muscle cells freshly isolated from guinea pig bladder
T1 sequence (H0W1Z3 1-590): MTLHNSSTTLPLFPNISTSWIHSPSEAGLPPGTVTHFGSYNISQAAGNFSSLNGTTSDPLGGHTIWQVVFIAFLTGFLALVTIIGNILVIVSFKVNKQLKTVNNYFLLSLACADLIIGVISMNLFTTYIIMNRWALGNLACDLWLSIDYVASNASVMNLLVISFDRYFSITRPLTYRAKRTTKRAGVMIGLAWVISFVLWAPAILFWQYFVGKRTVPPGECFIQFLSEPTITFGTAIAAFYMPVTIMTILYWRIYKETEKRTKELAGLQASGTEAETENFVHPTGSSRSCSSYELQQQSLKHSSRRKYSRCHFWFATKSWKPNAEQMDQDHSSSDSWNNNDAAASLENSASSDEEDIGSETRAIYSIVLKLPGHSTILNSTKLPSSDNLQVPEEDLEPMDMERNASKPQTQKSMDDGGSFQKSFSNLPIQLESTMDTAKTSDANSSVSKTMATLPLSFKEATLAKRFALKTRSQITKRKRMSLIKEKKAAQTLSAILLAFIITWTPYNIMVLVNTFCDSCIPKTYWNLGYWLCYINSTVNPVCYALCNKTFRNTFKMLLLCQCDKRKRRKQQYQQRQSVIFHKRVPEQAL
Description: Below, the method is described in brief.
Smooth muscle cells were isolated from guinea pig bladders from which the […] had been removed, loaded with a calcium-sensitive fluorescent dye Fura2 and suspended in phenol red-free Hanks' buffer solution supplemented with 20 mM HEPES (pH 7.4) and 0.1% bovine serum albumin. An aliquot of cell suspension (490 μL) was continuously stirred, kept at 28° C. and monitored for the ratio of fluorescence (500 nm) at 340 nm excitation to that at 380 nm excitation. To each aliquot, 5 μL of test compound and carbachol solutions were serially added with a 2 minute interval, and the peak increase in the ratio over the level just before stimulation was used in data analysis.

[3] = Evaluation of stability (1): forced degradation test, impurities by LC; details: for Change from Impurity Amt. before Storage (%), Condition 3 / Change from Impurity Amt. before Storage (%), Condition 2: 25° C., 5 days; for Change from Impurity Amt. before Storage (%), Condition 3: NUV (near ultraviolet ray) irradiated; for Change from Impurity Amt. before Storage (%), Condition 3 / Change from Impurity Amt. before Storage (%), Condition 1: tightly closed; for Change from Impurity Amt. before Storage (%), Condition 2: relative humidity 93%, open; for Change from Impurity Amt. before Storage (%), Condition 1: 120° C., 24 hours
Description: A sample after storage was dissolved in 1 mL of MeOH and used as a sample solution. The sample solution was diluted 100 times with MeOH and used as a standard solution. Impurities contained in the sample solution was quantitatively analyzed using the standard solution. In this determination, the apparatus including data processing was operated according to the method and procedure directed in each device. (Apparatus: LC-MSD 1100 series, made by Agilent)

Compound | Weight Change (%) [1] [%] | ID50 (dose required for 50% inhibition of bladder contraction) [2] [mg/kg] | Ki (muscarinic M3 receptors; read-out: Ki) [nM] | IC50 (muscarinic M3 receptors) [ng/mL] | Change from Impurity Amt. before Storage (%), Condition 3 [3] [%] | Change from Impurity Amt. before Storage (%), Condition 2 [3] [%] | Change from Impurity Amt. before Storage (%), Condition 1 [3] [%] | Impurities before Storage (%) [3] [%] | IC50 (muscarinic M3 receptors; IC50 (ng/mL)) [nM] | Ki (muscarinic M3 receptors; Ki (nM)) [nM] | Change from Impurity Amt. before Storage (%), Condition 3 ([3]; benzenesulfonate) [%] | Change from Impurity Amt. before Storage (%), Condition 2 ([3]; benzenesulfonate) [%] | Change from Impurity Amt. before Storage (%), Condition 1 ([3]; benzenesulfonate) [%] | Impurities before Storage (%) ([3]; benzenesulfonate) | Increase of impurities under heat ([3]; Condition 1 of Test Example 2 (stability test to heat))
(−)-(3R)-quinuclidin-3-yl(1R)-1-phenyl-1,2,3,4-tetrahydroisoquinoline-2-carboxylate methyl phosphate [Example 14] | <11 | – | – | – | – | – | – | – | – | – | – | – | – | – | –
(−)-(3R)-quinuclidin-3-yl(1R)-1-phenyl-1,2,3,4-tetrahydroisoquinoline-2-carboxylate naphthalene-2-sulfonate [Example 8] | <4 | 0.057 | 0.55 ± 0.12 | 2.3 ± 0.87 | 2.6 | 0.2 | 1.3 | 2.0 | – | – | – | – | – | – | –
Cc1ccc(S(=O)(=O)O)cc1.O=C(O[C@H]1CN2CCC1CC2)N1CCc2ccccc2[C@H]1c1ccccc1 [Example 11, (−)-(3R)-quinuclidin-3-yl(1R)-1-phenyl-1,2,3,4-tetrahydroisoquinoline-2-carboxylate p-toluenesulfonate] | <6 | – | – | – | 0.0 | 0.1 | −0.1 | 0.5 | 4.11 | 0.52 ± 0.13 | – | – | – | – | –
O=C(O[C@H]1CN2CCC1CC2)N1CCc2ccccc2[C@H]1c1ccccc1.O=S(=O)(O)c1ccccc1 [Example 5, (−)-(3R)-quinuclidin-3-yl(1R)-1-phenyl-1,2,3,4-tetrahydroisoquinoline-2-carboxylate benzenesulfonate] | <1 | 0.059 | – | – | – | – | – | – | 3.46 | 0.47 ± 0.12 | −0.1 | 0.1 | 0.3 | 1.6 | –
CS(=O)(=O)O.O=C(O[C@H]1CN2CCC1CC2)N1CCc2ccccc2[C@H]1c1ccccc1 [Example 13, (−)-(3R)-quinuclidin-3-yl(1R)-1-phenyl-1,2,3,4-tetrahydroisoquinoline-2-carboxylate methanesulfonate] | <25 | – | – | – | – | – | – | – | – | – | – | – | – | – | –
O=C(O[C@H]1CN2CCC1CC2)N1CCc2ccccc2[C@H]1c1ccccc1 [Example 2, (−)-(3R)-quinuclidin-3-yl(1R)-1-phenyl-1,2,3,4-tetrahydroisoquinoline-2-carboxylate (+)-(2S,3S)-di-O-benzoyltartrate] | <1 | – | – | – | 0.0 | 0.1 | 0.2 | 0.0 | 8.83 | 0.62 ± 0.16 | – | – | – | – | –
O=C(O[C@H]1CN2CCC1CC2)N1CCc2ccccc2[C@H]1c1ccccc1 [Example 3, (−)-(3R)-quinuclidin-3-yl(1R)-1-phenyl-1,2,3,4-tetrahydroisoquinoline-2-carboxylate (+)-(2S,3S)-di-O-(4-methylbenzoyl)tartrate] | <1 | – | – | – | 0.0 | 0.1 | 2.3 | 0.0 | 10.5 | 0.69 ± 0.19 | – | – | – | – | –
(−)-(3R)-quinuclidin-3-yl(1R)-1-phenyl-1,2,3,4-tetrahydroisoquinoline-2-carboxylate sebacate [Example 9] | <1 | – | 0.56 ± 0.048 | 2.2 ± 0.33 | −0.8 | 0.2 | −0.3 | 3.7 | – | – | – | – | – | – | –
(−)-(3R)-quinuclidin-3-yl(1R)-1-phenyl-1,2,3,4-tetrahydroisoquinoline-2-carboxylate (+)-camphor-10-sulfonate [Example 10] | <2 | – | 0.65 ± 0.12 | 2.6 ± 0.42 | 0.0 | 0.0 | 0.0 | 0.9 | – | – | – | – | – | – | –
(−)-(3R)-quinuclidin-3-yl(1R)-1-phenyl-1,2,3,4-tetrahydroisoquinoline-2-carboxylate (−)-L-phenylalaninate [Example 4] | <2 | 0.090 | 0.66 ± 0.046 | 2.5 ± 0.044 | −0.3 | −0.3 | 50.8 | 1.9 | – | – | – | – | – | – | increase of impurities
CCS(=O)(=O)O.O=C(O[C@H]1CN2CCC1CC2)N1CCc2ccccc2[C@H]1c1ccccc1 [Example 12, (−)-(3R)-quinuclidin-3-yl(1R)-1-phenyl-1,2,3,4-tetrahydroisoquinoline-2-carboxylate ethanesulfonate] | <5 | – | – | – | −0.1 | −0.1 | −0.2 | 1.4 | 4.02 | 0.54 ± 0.055 | – | – | – | – | –
O=C(O[C@H]1CN2CCC1CC2)N1CCc2ccccc2[C@H]1c1ccccc1.O=S(=O)(O)c1ccccc1 [Example 5-1, (−)-(3R)-quinuclidin-3-yl(1R)-1-phenyl-1,2,3,4-tetrahydroisoquinoline-2-carboxylate benzenesulfonate] | <1 | – | – | – | – | – | – | – | – | – | −0.2 | 0.0 | −0.1 | 1.8 | –
Br.O=C(O[C@H]1CN2CCC1CC2)N1CCc2ccccc2[C@H]1c1ccccc1 [Example 7, (−)-(3R)-quinuclidin-3-yl(1R)-1-phenyl-1,2,3,4-tetrahydroisoquinoline-2-carboxylate hydrobromide] | <4 | 0.050 | – | – | 0.3 | 0.2 | −0.2 | 0.5 | 4.06 | 0.66 ± 0.28 | – | – | – | – | –
